Tests used:
[1] = target: T1, Tyrosine-protein phosphatase non-receptor type 1 (Homo sapiens, UniProt P18031); assay: Inhibition of recombinant human PTPN1 using p-nitrophenyl phosphate as substrate by spectrophotometric analysis
T1 sequence (P18031 whole entry): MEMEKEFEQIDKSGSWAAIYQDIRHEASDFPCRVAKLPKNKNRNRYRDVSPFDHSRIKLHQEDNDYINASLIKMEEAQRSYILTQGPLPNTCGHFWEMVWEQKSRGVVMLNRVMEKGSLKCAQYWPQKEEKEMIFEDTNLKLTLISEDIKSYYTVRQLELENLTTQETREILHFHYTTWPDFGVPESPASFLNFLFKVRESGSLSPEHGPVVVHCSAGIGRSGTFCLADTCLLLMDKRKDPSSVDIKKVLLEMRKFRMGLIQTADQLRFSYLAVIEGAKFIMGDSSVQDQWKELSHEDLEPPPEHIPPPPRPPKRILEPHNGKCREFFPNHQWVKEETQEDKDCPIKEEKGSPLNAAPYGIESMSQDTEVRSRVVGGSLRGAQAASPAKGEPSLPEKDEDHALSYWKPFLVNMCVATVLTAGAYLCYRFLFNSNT

[2] = target: T2, Tyrosine-protein phosphatase non-receptor type 1 (Homo sapiens) (UniProt P18031); assay: Binding affinity to PTPN1 (unknown origin) assessed as association rate constant (Kon) by Bio-Layer Interferometric analysis
T2 sequence (whole entry): T1 sequence (P18031 whole entry)

[3] = target: T1, Tyrosine-protein phosphatase non-receptor type 1; assay: Binding affinity to PTPN1 (unknown origin) assessed as equilibrium dissociation constant (Kd) by Bio-Layer Interferometric analysis
[4] = Stability in rat plasma assessed as half life; type: ADME, cell-free
pepsin = assay: Proteolytic stability of compound assessed as pepsin (unknown origin)-mediated drug degradation at 40 mM by measuring half life measured after 24 hrs by RP-HPLC analysis; type: ADME; details: human
chymotrypsin = assay: Proteolytic stability of compound assessed as chymotrypsin (unknown origin)-mediated drug degradation at 0.6 mM by measuring half life measured after 24 hrs by RP-HPLC analysis; type: ADME; details: human
[5] = target: T2, Tyrosine-protein phosphatase non-receptor type 1 (Homo sapiens); assay: Binding affinity to PTPN1 (unknown origin) assessed as observed […] rate constant (Kobs) by Bio-Layer Interferometric analysis
[6] = target: DPP-4 (dipeptidyl peptidase 4) (Homo sapiens, UniProt P27487); assay: Stability of compound assessed as DPP-4 (unknown origin)-mediated drug degradation by measuring half life measured for 10 mins by RP-HPLC analysis; type: ADME
proteinase K = assay: Proteolytic stability of compound assessed as proteinase K (unknown origin)-mediated drug degradation at 0.4 mM by measuring half life measured after 24 hrs by RP-HPLC analysis; type: ADME; details: human
[7] = target: T2, Tyrosine-protein phosphatase non-receptor type 1 (Homo sapiens); assay: Binding affinity to PTPN1 (unknown origin) assessed as dissociation rate constant (Koff) by Bio-Layer Interferometric analysis
[8] = Toxicity in male Kunming mouse assessed as reduction in body weight at 0.2 microM/Kg, sc administered daily for 7 days and measured on day 1; type: organism-based; details: in vivo, 24 h, time 1 day
Mus musculus [9] = assay: Anti-diabetic activity in male Kunming mouse assessed as reduction in area under the curve of blood glucose at 0.05 microM/Kg, sc measured for 0 to 120 mins by GTT; type: functional; design: scale not given: the % may be the effect or the level left; details: time 0-120 min, at 0.05 µmol/kg
Mus musculus [10] = assay: Anti-diabetic activity in male Kunming mouse assessed as reduction in area under the curve of blood glucose at 0.2 microM/Kg, sc measured for 0 to 120 mins by GTT; type: functional; design: scale not given: the % may be the effect or the level left; details: time 0-120 min, at 0.2 µmol/kg
Mus musculus [11] = assay: Anti-diabetic activity in male Kunming mouse assessed as reduction in area under the curve of blood glucose at 10 mg/kg, po measured for 0 to 180 mins by GTT; type: functional; design: scale not given: the % may be the effect or the level left; details: time 0-180 min
Mus musculus [12] = assay: Anti-diabetic activity in male Kunming mouse assessed as reduction in area under the curve of blood glucose at 0.1 microM/Kg, sc measured for 0 to 120 mins by GTT; type: functional; design: scale not given: the % may be the effect or the level left; details: time 0-120 min, at 0.1 µmol/kg
[13] = Toxicity in male Kunming mouse assessed as change in body weight at 0.2 microM/Kg, sc administered daily for 7 days and measured from day 2 to 7; type: organism-based; details: in vivo, 144 h, time 6 day
Mus musculus [14] = assay: Anti-diabetic activity in male Kunming mouse assessed as reduction in area under the curve of blood glucose at 20 mg/kg, po measured for 0 to 180 mins by GTT; type: functional; design: scale not given: the % may be the effect or the level left; details: time 0-180 min
Mus musculus [15] = assay: Anti-diabetic activity in male Kunming mouse assessed as reduction in area under the curve of blood glucose at 40 mg/kg, po measured for 0 to 180 mins by GTT; type: functional; design: scale not given: the % may be the effect or the level left; details: time 0-180 min

Sequence of DPP-4 (dipeptidyl peptidase 4) (P27487 whole entry): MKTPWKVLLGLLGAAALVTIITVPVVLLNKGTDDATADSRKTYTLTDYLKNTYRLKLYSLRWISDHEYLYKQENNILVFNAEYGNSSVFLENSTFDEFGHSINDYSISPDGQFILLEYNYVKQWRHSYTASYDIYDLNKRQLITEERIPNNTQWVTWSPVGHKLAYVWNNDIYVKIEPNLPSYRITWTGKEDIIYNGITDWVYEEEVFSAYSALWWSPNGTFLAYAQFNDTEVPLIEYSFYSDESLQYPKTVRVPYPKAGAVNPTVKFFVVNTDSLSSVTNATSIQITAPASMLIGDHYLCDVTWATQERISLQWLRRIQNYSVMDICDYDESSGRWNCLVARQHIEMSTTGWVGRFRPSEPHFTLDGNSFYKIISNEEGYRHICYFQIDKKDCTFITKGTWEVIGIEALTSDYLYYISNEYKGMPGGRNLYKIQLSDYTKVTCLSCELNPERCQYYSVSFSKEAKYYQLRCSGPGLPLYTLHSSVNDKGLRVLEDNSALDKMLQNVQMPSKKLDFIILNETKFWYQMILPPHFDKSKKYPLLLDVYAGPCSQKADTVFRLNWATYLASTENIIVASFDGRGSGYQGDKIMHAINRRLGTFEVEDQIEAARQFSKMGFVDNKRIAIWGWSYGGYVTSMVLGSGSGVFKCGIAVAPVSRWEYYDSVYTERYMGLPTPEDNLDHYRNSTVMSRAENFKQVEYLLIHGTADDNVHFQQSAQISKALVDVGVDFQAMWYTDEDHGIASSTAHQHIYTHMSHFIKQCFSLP

| Compound | IC50 [1] | K [2] | Kd [3] | half-life [4] | half-life at 40000 µM (pepsin) | half-life at 600 µM (chymotrypsin) | Kobs [5] | half-life [6] | half-life at 400 µM (proteinase K) | K [7] | Activity [8] | Activity (Mus musculus [9]) | Activity (Mus musculus [10]) | Activity (Mus musculus [11]) | Activity (Mus musculus [12]) | Activity [13] | Activity (Mus musculus [14]) | Activity (Mus musculus [15]) |
| --- | --- | --- | --- | --- | --- | --- | --- | --- | --- | --- | --- | --- | --- | --- | --- | --- | --- | --- |
| CCCCCCCCCCCCCCCC(=O)N[C@H](C(=O)N[C@H](CCC(N)=O)C(=O)N[C@@H](CCC(N)=O)C(=O)N[C@@H](CCC(=O)O)C(=O)N[C@@H](CC(C)C)C(=O)N[C@@H](CCCNC(=N)N)C(=O)N[C@@H](CCCNC(=N)N)C(=O)N[C@H](C(=O)NCC(=O)N[C@@H](CC(=O)O)C(=O)N[C@@H](CCC(=O)O)C(=O)N[C@@H](Cc1ccccc1)C(=O)O)[C@@H](C)CC)[C@@H](C)CC | 4210 nM |  |  |  |  |  |  |  |  |  |  |  |  |  |  |  |  |  |
| CCCCCCCCCCCCCCCC(=O)N[C@H](C(=O)N[C@H](C)C(=O)N[C@@H](CCC(N)=O)C(=O)N[C@@H](CCC(=O)O)C(=O)N[C@@H](CC(C)C)C(=O)N[C@@H](CCCNC(=N)N)C(=O)N[C@@H](CCCNC(=N)N)C(=O)N[C@H](C(=O)NCC(=O)N[C@@H](CC(=O)O)C(=O)N[C@@H](CCC(=O)O)C(=O)N[C@@H](Cc1ccccc1)C(=O)O)[C@@H](C)CC)[C@@H](C)CC | 395 nM | 3.27 10^2/Ms | 167 nM | 102 h | 2.42 h | 1.72 h | 6.69 10^-3No_unit | 3.61 h | 15 h | 1.46 10^-4/s |  |  |  |  |  |  |  |  |
| CCCCCCCCCCCCCCCC(=O)N[C@H](C(=O)N[C@H](CO)C(=O)N[C@@H](CCC(N)=O)C(=O)N[C@@H](CCC(=O)O)C(=O)N[C@@H](CC(C)C)C(=O)N[C@@H](CCCNC(=N)N)C(=O)N[C@@H](CCCNC(=N)N)C(=O)N[C@H](C(=O)NCC(=O)N[C@@H](CC(=O)O)C(=O)N[C@@H](CCC(=O)O)C(=O)N[C@@H](Cc1ccccc1)C(=O)O)[C@@H](C)CC)[C@@H](C)CC | 4410 nM |  |  |  |  |  |  |  |  |  |  |  |  |  |  |  |  |  |
| CCCCCCCCCCCCCCCC(=O)N[C@H](C(=O)N[C@@H](C)C(=O)N[C@@H](CCC(N)=O)C(=O)N[C@@H](CCC(=O)O)C(=O)N[C@@H](CC(C)C)C(=O)N[C@@H](CCCNC(=N)N)C(=O)N[C@H](CCCNC(=N)N)C(=O)N[C@H](C(=O)NCC(=O)N[C@@H](CC(=O)O)C(=O)N[C@@H](CCC(=O)O)C(=O)N[C@@H](Cc1ccccc1)C(=O)O)[C@@H](C)CC)[C@@H](C)CC | 1640 nM |  |  |  |  |  |  |  |  |  |  |  |  |  |  |  |  |  |
| CCCCCCCCCCCCCCCC(=O)N[C@H](C(=O)N[C@H](Cc1ccc(O)cc1)C(=O)N[C@@H](CCC(N)=O)C(=O)N[C@@H](CCC(=O)O)C(=O)N[C@@H](CC(C)C)C(=O)N[C@@H](CCCNC(=N)N)C(=O)N[C@@H](CCCNC(=N)N)C(=O)N[C@H](C(=O)NCC(=O)N[C@@H](CC(=O)O)C(=O)N[C@@H](CCC(=O)O)C(=O)N[C@@H](Cc1ccccc1)C(=O)O)[C@@H](C)CC)[C@@H](C)CC | 461 nM | 4.4 10^2/Ms | 447 nM | 98.6 h | 1.78 h | 0.115 h | 8.87 10^-3No_unit | 13.6 h | 8.66 h | 7.35 10^-5/s |  |  |  |  |  |  |  |  |
| CCCCCCCCCCCCCCCC(=O)N[C@H](C(=O)N[C@@H](C(=O)N[C@@H](CCC(N)=O)C(=O)N[C@@H](CCC(=O)O)C(=O)N[C@@H](CC(C)C)C(=O)N[C@@H](CCCNC(=N)N)C(=O)N[C@@H](CCCNC(=N)N)C(=O)N[C@H](C(=O)NCC(=O)N[C@@H](CC(=O)O)C(=O)N[C@@H](CCC(=O)O)C(=O)N[C@@H](Cc1ccccc1)C(=O)O)[C@@H](C)CC)C(C)C)[C@@H](C)CC | 805 nM | 2.78 10^2/Ms | 2110 nM | 70.7 h | 1.17 h | 0.163 h | 6.14 10^-3No_unit | 7.12 h | 12.3 h | 5.85 10^-3/s |  |  |  |  |  |  |  |  |
| CCCCCCCCCCCCCCCC(=O)N[C@H](C(=O)N[C@@H](C)C(=O)N[C@H](CCC(N)=O)C(=O)N[C@@H](CCC(=O)O)C(=O)N[C@@H](CC(C)C)C(=O)N[C@@H](CCCNC(=N)N)C(=O)N[C@@H](CCCNC(=N)N)C(=O)N[C@H](C(=O)NCC(=O)N[C@@H](CC(=O)O)C(=O)N[C@@H](CCC(=O)O)C(=O)N[C@@H](Cc1ccccc1)C(=O)O)[C@@H](C)CC)[C@@H](C)CC | 855 nM |  |  |  | 1.13 h | 1.86 h |  | 1.42 h | 3.21 h |  |  |  |  |  |  |  |  |  |
| CCCCCCCCCCCCCCCC(=O)N[C@H](C(=O)N[C@H](Cc1cnc[nH]1)C(=O)N[C@@H](CCC(N)=O)C(=O)N[C@@H](CCC(=O)O)C(=O)N[C@@H](CC(C)C)C(=O)N[C@@H](CCCNC(=N)N)C(=O)N[C@@H](CCCNC(=N)N)C(=O)N[C@H](C(=O)NCC(=O)N[C@@H](CC(=O)O)C(=O)N[C@@H](CCC(=O)O)C(=O)N[C@@H](Cc1ccccc1)C(=O)O)[C@@H](C)CC)[C@@H](C)CC | 871 nM |  |  |  | 1.14 h | 2.9 h |  |  | 3.79 h |  |  |  |  |  |  |  |  |  |
| CCCCCCCCCCCCCCCC(=O)N[C@H](C(=O)N[C@@H](C)C(=O)N[C@@H](CCC(N)=O)C(=O)N[C@@H](CCC(=O)O)C(=O)N[C@@H](CC(C)C)C(=O)N[C@@H](CCCNC(=N)N)C(=O)N[C@@H](CCCNC(=N)N)C(=O)N[C@H](C(=O)NCC(=O)N[C@@H](CC(=O)O)C(=O)N[C@@H](CCC(=O)O)C(=O)N[C@@H](Cc1ccccc1)C(=O)O)[C@@H](C)CC)[C@@H](C)CC |  | 2.35 10^2/Ms | 2820 nM | 10.6 h | 2.7 h | 0.556 h | 7.3 10^-3No_unit | 3.68 h | 2.65 h | 6.65 10^-3/s |  |  |  |  |  |  |  |  |
| CCCCCCCCCCCCCCCC(=O)N[C@H](C(=O)N[C@@H](C)C(=O)N[C@@H](CCC(N)=O)C(=O)N[C@@H](CCC(=O)O)C(=O)N[C@@H](CC(C)C)C(=O)N[C@@H](CCCNC(=N)N)C(=O)N[C@@H](CCCNC(=N)N)C(=O)N[C@@H](C(=O)NCC(=O)N[C@@H](CC(=O)O)C(=O)N[C@@H](CCC(=O)O)C(=O)N[C@@H](Cc1ccccc1)C(=O)O)[C@@H](C)CC)[C@@H](C)CC | 294 nM | 1.65 10^3/Ms | 15.1 nM | 101 h | 1.42 h | 0.712 h | 3.31 10^-2No_unit | 2.87 h | 8.87 h | 2.5 10^-5/s | ~ 1 g | 7.1% | 26.2% | 4.6% | 15.6% | Non-toxic | 8% | 15.4% |
| CCCCCCCCCCCCCCCC(=O)N[C@H](C(=O)N[C@H](CCCCN)C(=O)N[C@@H](CCC(N)=O)C(=O)N[C@@H](CCC(=O)O)C(=O)N[C@@H](CC(C)C)C(=O)N[C@@H](CCCNC(=N)N)C(=O)N[C@@H](CCCNC(=N)N)C(=O)N[C@H](C(=O)NCC(=O)N[C@@H](CC(=O)O)C(=O)N[C@@H](CCC(=O)O)C(=O)N[C@@H](Cc1ccccc1)C(=O)O)[C@@H](C)CC)[C@@H](C)CC | 2140 nM |  |  |  |  |  |  |  |  |  |  |  |  |  |  |  |  |  |
